For this test, the target named is B-Raf (V600E)-kinase (Homo sapiens, UniProt P15056, V600E). The test can be described thus: Kinase test B-Raf (V600E). It is filed as biochemical. The note with it: 100% = no inhibition, 0% = total inhibition, read-out: % CTL (residual activity of the enzyme relative to DMSO control); for remaining activity at 2 µM: compound concentration 2 μM; for remaining activity at 1.43 µM: measurement at 1.43 μM (***). The procedure: In a dilution series 10 μL of test substance solution are placed in a multiwell plate. The dilution series is selected so that generally a range of concentrations of 2 μM to 0.119 nM or 0.017 nM is covered. If necessary the initial concentration of 2 μM is changed to 50 μM, 10 μM or 0.4 μM or 0.2857 μM and further dilution is carried out accordingly. The final concentration of DMSO is 5%. 10 μL of the B-Raf (V600E)-kinase solution are pipetted in (containing 0.5 ng B-Raf (V600E)-kinase in 20 mM Tris-HCl pH 7.5, 0.1 mM EDTA, 0.1 mM EGTA, 0.286 mM sodium orthovanadate, 10% glycerol, 1 mg/mL bovine serum albumin, 1 mM dithiothreitol) and the mixture is incubated for 1 h at RT under with shaking The kinase reaction is started by the addition of 20 μL ATP solution [final concentration: 250 μM ATP, 30 mM Tris-HCl pH 7.5, 0.02% Brij, 0.2 mM sodium orthovanadate, 10 mM magnesium acetate, 0.1 mM EGTA, phosphatase cocktail (Sigma, # P2850, dilution recommended by the manufacturer), 0.1 mM EGTA] and 10 μL MEK1 solution [containing 50 ng biotinylated MEK1 (prepared from purified MEK1 according to standard procedure, e.g. with EZ-Link Sulpho-NHS-LC-Biotin reagent, Pierce, # 21335) and carried out for 60 min at RT with constant shaking. The reaction is stopped by the addition of 12 μL of a 100 mM EDTA solution and incubation is continued for a further 5 min. 55 μL of the reaction solution are transferred into a streptavidin-coated plate (e.g. Streptawell HighBond, Roche, #11989685001) and shaken gently for 1 h at RT, in order to bind biotinylated MEK1 to the plate. After elimination of the liquid the plate is washed five times with 200 μL of 1×PBS and 100 μL solution of primary antibody plus europium-labelled secondary antibody [Anti Phospho-MEK (Ser217/221), Cell Signaling, # 9121 and Eu-N1 labeled goat-anti-rabbit antibody, Perkin Elmer, #AD0105], the primary antibody is diluted 1:2000 and the secondary antibody is diluted to 0.4-0.5 μg/mL in Delfia Assay Buffer (Perkin Elmer, #1244-111). After 1 h shaking at RT the solution is poured away and washed five times with 200 μL Delfia Wash Buffer (Perkin Elmer, #4010-0010/#1244-114). After the addition of 200 μL Enhancement Solution (Perkin Elmer, #4001-0010/#1244-105) the mixture is shaken for 10 min at RT and then measured in a Wallac Victor using the program “Delfia Time Resolved Fluorescence (Europium)”. IC50 values are obtained from these dosage-activity curves using a software program (GraphPadPrizm).
Chain of B-Raf (V600E)-kinase (P15056 whole entry V600E): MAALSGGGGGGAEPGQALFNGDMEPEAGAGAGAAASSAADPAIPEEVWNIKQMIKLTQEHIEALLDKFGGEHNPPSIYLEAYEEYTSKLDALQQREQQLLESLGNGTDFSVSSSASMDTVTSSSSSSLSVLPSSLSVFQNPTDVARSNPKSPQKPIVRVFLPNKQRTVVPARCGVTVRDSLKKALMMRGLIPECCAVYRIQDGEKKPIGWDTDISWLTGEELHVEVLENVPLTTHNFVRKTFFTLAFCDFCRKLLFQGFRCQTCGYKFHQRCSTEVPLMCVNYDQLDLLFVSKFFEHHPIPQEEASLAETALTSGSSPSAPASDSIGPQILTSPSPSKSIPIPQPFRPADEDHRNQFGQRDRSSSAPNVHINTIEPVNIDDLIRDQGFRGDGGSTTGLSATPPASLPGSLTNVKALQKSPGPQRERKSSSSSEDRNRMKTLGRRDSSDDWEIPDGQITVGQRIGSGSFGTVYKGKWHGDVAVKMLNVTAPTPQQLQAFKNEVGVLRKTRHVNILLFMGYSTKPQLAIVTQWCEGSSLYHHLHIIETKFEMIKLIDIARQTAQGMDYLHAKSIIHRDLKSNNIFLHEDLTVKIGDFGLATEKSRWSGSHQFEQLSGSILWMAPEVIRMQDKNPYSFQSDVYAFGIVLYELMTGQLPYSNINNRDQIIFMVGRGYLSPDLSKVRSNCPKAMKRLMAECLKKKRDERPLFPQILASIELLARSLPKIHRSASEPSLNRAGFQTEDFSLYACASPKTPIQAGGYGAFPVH
A value of 100% indicates no inhibition while a value of 0% indicates total inhibition. The % CTL values denote the residual activity of the enzyme after the addition of the inhibitory compound in the solvent DMSO in relation to the enzyme activity in the solvent DMSO without the addition of a compound (control). The values were determined using the B-Raf(V600E)-kinase test described above.

Here are results for 44 molecules from patent US8778929B2, “Substituted heteroaryl inhibitors of B-RAF” (Boehringer Ingelheim International GmbH, priority 2008, dated 2014).

For the molecule `Cc1ncc(C(=O)Nc2cc(C(F)(F)F)cc(Br)c2C)cc1-n1cc(-c2cnn(C)c2C)nn1` [Example I-100], the remaining activity at 2 µM came to 3%.
On to `Cc1ncc(C(=O)Nc2cc(C(F)(F)F)cc(N3CCN(C)CC3)c2C)cc1-n1cc(-c2cnn(C)c2C)nn1` [Example I-101], for which the remaining activity at 1.43 µM worked out at 1.3%.
Turning to `COc1c(CN(C)C)cc(C(F)(F)F)cc1NC(=O)c1cnc(C)c(-n2cc(-c3cnn(C)c3C)nn2)c1` [Example I-102], the remaining activity at 2 µM turned out to be 4.6%.
With `COc1c(CNC(C)C)cc(NC(=O)c2cnc(C)c(-n3cc(-c4cnn(C)c4C)nn3)c2)cc1C(F)(F)F` [Example I-103], the remaining activity at 2 µM worked out at 3.8%.
In the case of `COc1c(CN2CCCC2)cc(C(F)(F)F)cc1NC(=O)c1cnc(C)c(-n2cc(-c3cnn(C)c3C)nn2)c1` [Example I-104], the remaining activity at 2 µM was found to be 2.1%.
For `COc1c(CNCC(C)C)cc(C(F)(F)F)cc1NC(=O)c1cnc(C)c(-n2cc(-c3cnn(C)c3C)nn2)c1` [Example I-105], the remaining activity at 1.43 µM turned out to be 2%.
Regarding `Cc1ncc(C(=O)Nc2cc(CN(C)C)cc(C(F)(F)F)c2)cc1-n1cc(-c2cnn(C)c2C)nn1` [Example I-106], the remaining activity at 2 µM turned out to be 1.3%.
On to `Cc1ncc(C(=O)Nc2cc(CNC(C)C)cc(C(F)(F)F)c2)cc1-n1cc(-c2cnn(C)c2C)nn1` [Example I-107], for which the remaining activity at 2 µM turned out to be 1.6%.
Regarding `Cc1ncc(C(=O)Nc2cc(CNCC(C)C)cc(C(F)(F)F)c2)cc1-n1cc(-c2cnn(C)c2C)nn1` [Example I-108], the remaining activity at 2 µM was 1.7%.
On the same count and under the same terms, in the case of `COCCN(C)Cc1cc(NC(=O)c2cnc(C)c(-n3cc(-c4cnn(C)c4C)nn3)c2)cc(C(F)(F)F)c1` [Example I-109] it was 1.8%; in that of `CNCc1cc(NC(=O)c2cnc(C)c(-n3cc(-c4cnn(C)c4C)nn3)c2)cc(C(F)(F)F)c1` [Example I-110], 1.3%; in that of `Cc1ncc(C(=O)Nc2cc(CNC3CC3)cc(C(F)(F)F)c2)cc1-n1cc(-c2cnn(C)c2C)nn1` [Example I-111], 1.8%.
`COCCN(C)Cc1cc(C(F)(F)F)cc(NC(=O)c2cnc(C)c(-n3cc(-c4cnn(C)c4C)nn3)c2)c1OC` [Example I-112]: the remaining activity at 2 µM came out at 2%.
The same measure, in the same setting: to `COc1c(CO)cc(NC(=O)c2cnc(C)c(-n3cc(-c4cnn(C)c4C)nn3)c2)cc1C(F)(F)F` [Example I-113] belongs 2.9%.
As to `Cc1ncc(C(=O)Nc2cc(C(F)(F)F)cc(N3CCCCC3)c2C)cc1-n1cc(-c2cnn(C)c2C)nn1` [Example I-114], under “measurement at 1.02 μM (**)”, the remaining activity at 1.02 µM turned out to be 15.6%.
For `Cc1ncc(C(=O)Nc2cc(CO)c(Cl)c(C(F)(F)F)c2)cc1-n1cc(-c2cnn(C)c2C)nn1` [Example I-115], the remaining activity at 2 µM amounted to 1.9%.
With `COc1c(CN2CCCC2)cc(NC(=O)c2cnc(C)c(-n3cc(-c4cnn(C)c4C)nn3)c2)cc1C(F)(F)F` [Example I-116], the remaining activity at 2 µM came to 3.1%.
On to `Cc1ncc(C(=O)Nc2cc(C(F)(F)F)cc(N3CCCOCC3)c2C)cc1-n1cc(-c2cnn(C)c2C)nn1` [Example I-118], for which the remaining activity at 2 µM worked out at 2.6%.
Still for that read-out and setting: to `Cc1ncc(C(=O)Nc2cc(C(F)(F)F)cc(N(C)CCN(C)C)c2C)cc1-n1cc(-c2cnn(C)c2C)nn1` [Example I-119] belongs 1.8%.
On the same count and under the same terms, to `CCN1CCN(c2cc(C(F)(F)F)cc(NC(=O)c3cnc(C)c(-n4cc(-c5cnn(C)c5C)nn4)c3)c2C)CC1` [Example I-120] belongs 1.7%.
Take `Cc1ncc(C(=O)Nc2cc(C(F)(F)F)cc(N3CCCC3)c2C)cc1-n1cc(-c2cnn(C)c2C)nn1` [Example I-121]: the remaining activity at 1.43 µM stood at 2.3%.
Take `Cc1ncc(C(=O)Nc2cc(C(F)(F)F)cc(N3CCOCC3)c2C)cc1-n1cc(-c2cnn(C)c2C)nn1` [Example I-122]: the remaining activity at 2 µM was found to be 1.8%.
Consider `Cc1ncc(C(=O)Nc2cc(CN3CCCC3)cc(C(F)(F)F)c2)cc1-n1cc(-c2cncs2)nn1` [Example I-123], for which the remaining activity at 2 µM came out at 5.8%.
Same read-out and setting: to `Cc1ncc(C(=O)Nc2cc(OC(F)(F)F)cc(N3CCN(C)CC3)c2)cc1-n1cc(-c2cncnc2)nn1` [Example I-124] belongs 1.9%.
With `Cc1ncc(C(=O)Nc2cc(C3=CCN(C)CC3)c(C)c(C(F)(F)F)c2)cc1-n1cc(-c2cnn(C)c2C)nn1` [Example I-125], the remaining activity at 2 µM turned out to be 1.2%.
The same measure, in the same setting: in the case of `Cc1ncc(C(=O)Nc2cc(C3=CCNCC3)c(C)c(C(F)(F)F)c2)cc1-n1cc(-c2cnn(C)c2C)nn1` [Example I-126] it was 5.7%; in that of `Cc1ncc(C(=O)Nc2cc(CN3CCCC3)c(Cl)c(C(F)(F)F)c2)cc1-n1cc(-c2cncs2)nn1` [Example I-127], 6.1%; in that of `Cc1ncc(C(=O)Nc2cc(N3CCN(C)CC3)c(F)c(C(F)(F)F)c2)cc1-n1cc(-c2cncs2)nn1` [Example I-128], 5.3%.
For `Cc1ncc(C(=O)Nc2cc(CN3CCCC3)c(C)c(C(F)(F)F)c2)cc1-n1cc(-c2cnn(C)c2C)nn1` [Example I-130], the remaining activity at 2 µM was 2.2%.
Still for that read-out and setting: to `Cc1ncc(C(=O)Nc2cc(CNCC(C)C)c(C)c(C(F)(F)F)c2)cc1-n1cc(-c2cnn(C)c2C)nn1` [Example I-131] belongs 2.2%; to `Cc1ncc(C(=O)Nc2cc(CNC(C)C)c(C)c(C(F)(F)F)c2)cc1-n1cc(-c2cnn(C)c2C)nn1` [Example I-132], 1%.
Turning to `CCN1CCN(c2cncc(-c3cn(-c4cc(C(=O)Nc5cc(C(C)(C)C)on5)cnc4C)nn3)c2)CC1` [Example I-134], the remaining activity at 2 µM was 2.6%.
Still for that read-out and setting: to `COCCN1CCN(c2cncc(-c3cn(-c4cc(C(=O)Nc5cc(C(C)(C)C)on5)cnc4C)nn3)c2)CC1` [Example I-135] belongs 2.6%.
Take `Cc1ncc(C(=O)Nc2cc(C(C)(C)C)on2)cc1-n1cc(-c2cncc(N3CCC(N4CCOCC4)CC3)c2)nn1` [Example I-136]: the remaining activity at 2 µM stood at 2.5%.
As to `Cc1ncc(C(=O)Nc2cc(C(C)(C)C)on2)cc1-n1cc(-c2cncc(N3CCN(CC4CC4)CC3)c2)nn1` [Example I-137], the remaining activity at 2 µM worked out at 2.5%.
The same measure, in the same setting: to `Cc1ncc(C(=O)Nc2cc(C(C)(C)C)on2)cc1-n1cc(-c2cncc(NCCN(C)C)c2)nn1` [Example I-138] belongs 2.5%; to `Cc1ncc(C(=O)Nc2cc(C(C)(C)C)on2)cc1-n1cc(-c2cncc(N3CCC(N4CCCCC4)CC3)c2)nn1` [Example I-139], 2.5%; to `Cc1ncc(C(=O)Nc2cc(C(C)(C)C)on2)cc1-n1cc(-c2cncc(N3CCN(C(C)C)CC3)c2)nn1` [Example I-140], 2.2%.
Still for that read-out and setting: to `Cc1ncc(C(=O)Nc2cc(C(C)(C)C)on2)cc1-n1cc(-c2cncc(N(C)CCN(C)C)c2)nn1` [Example I-141] belongs 2.1%.
As for `Cc1ncc(C(=O)Nc2ccc(Cl)c(C(F)(F)F)c2)cc1-n1cc(-c2cncc(N3CCN(C)CC3)c2)nn1` [Example I-142], the remaining activity at 2 µM came to 1.5%.
Same read-out and setting: to `Cc1ncc(C(=O)Nc2cc(C(C)(C)C)on2)cc1-n1cc(-c2cncc(N3CC[C@@H](N(C)C)C3)c2)nn1` [Example I-143] belongs 2.2%; to `Cc1ncc(C(=O)Nc2cc(C(F)(F)F)ccn2)cc1-n1cc(-c2cncc(N3CCN(C)CC3)c2)nn1` [Example I-144], 1.9%; to `Cc1ncc(C(=O)Nc2cc(C(C)(C)C)on2)cc1-n1cc(-c2cncc(N3CC[C@H](N(C)C)C3)c2)nn1` [Example I-145], 2.2%.
As to `COc1ccc(NC(=O)c2cnc(C)c(-n3cc(-c4cncc(N5CCN(C)CC5)c4)nn3)c2)cc1C(F)(F)F` [Example I-146], the remaining activity at 2 µM amounted to 2%.
